Reference: PubChem BioAssay AID179 (DTP/NCI, 2004)
Active and inactive are the calls of the source.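 The calls were made as follows: active = compounds giving half or more protection of infected cells from virus-caused growth loss, again on retest; inactive = the rest.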

System: CEM cells HIV-1 protection, formazan growth assay
Experiment: NCI AIDS Antiviral Assay
Settings: for IC50: measured here: growth of uninfected CEM cells
In short: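 Protection of CEM cells against HIV-1 measured as cell growth via soluble formazan read-out, with five concentrations tested on both infected and uninfected cells; failure to protect may reflect toxicity.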

Row | Structure (SMILES) | EC50 [µM] | IC50 [µM] | outcome
1 | COc1cc([N+](=O)[O-])c(S(=O)(=O)O)cc1NS(=O)(=O)c1ccc(C)cc1 | > 200 | > 200 | 
2 | O=[N+]([O-])c1cccc(N=Cc2ccc(O)cc2)c1 | > 200 | 182 | 
3 | N#Cc1ccc(C2NN=CC23C(=O)c2ccccc2OC3c2ccccc2)cc1 (configuration not stated) | > 200 | 64.6 | 
4 | COc1ccc(NC(=S)Nc2c(C)n(C)n(-c3ccccc3)c2=O)cc1 | > 200 | > 200 | 
5 | CSC1=C(C(=O)Nc2ccc(C)cc2)C(N)=NC1=O | > 100 | > 100 | 
6 | COc1ccc2c(c1)C(=O)CC(c1ccccc1OC)O2 (configuration not stated) | > 200 | 34.7 | 
7 | Cc1cc(=O)n(-c2cc3cccccc-3n2)[nH]1 |  |  | inactive
8 | O=C1c2cc3c(cc2CC12Cc1ccc4c(c1C2=O)CCCC4)CCCC3 (configuration not stated) | > 200 | > 200 | 
9 | Clc1ccc2nc(-c3ccc(Cl)c(Cl)c3)cc(-c3ccccc3)c2c1 | > 200 | > 200 | 
10 | O=[N+]([O-])/C(Cl)=C(/C(Cl)=C(Cl)Cl)N1CCCCC1 | > 200 | 12.3 | 
11 | Cc1cc(=O)n2cn[nH]c2n1 | > 200 | > 200 | 
12 | Nc1nc2c(c(-c3ccc(F)cc3)n1)COC/C2=C\c1ccc(F)cc1 | > 200 | 158 | 
13 | C/C(CC(=O)Nc1ccc(C)c(C)c1)=N\NC(N)=S | > 891 | 117 | 
14 | NNC(=O)CCc1c[nH]c2ccccc12 | > 1230 | 661 | 
15 | O=C(O)c1ccc2c(c1)CC1(C2)Cc2cc3c(cc2C1=O)CCC3 (configuration not stated) | > 200 | 85.1 | 
16 | COC(=O)c1c2c(cc3c1CC1(C3)Cc3ccc4c(c3C1=O)CCC4)CCC2 (configuration not stated) | > 200 | 4.17 | 
17 | CCOC(=O)c1nc2ccc(C(F)(F)F)cc2nc1NCc1ccc(OC)cc1 | > 200 | 38 | 
18 | CN(C)[C@@H]1C(=O)C(C(=O)NCNc2nc3n[nH]nc3c(=O)[nH]2)=C(O)[C@@]2(O)C(=O)C3=C(O)c4c(O)cccc4[C@@](C)(O)[C@H]3C[C@@H]12 | > 0.891 | 0.562 | 
19 | CCCCCCCCCCCCCCCCc1c(C(=O)OC)nc(NC#N)[nH]c1=O | > 14.5 | > 14.5 | 
20 | Nc1ccc([As](=O)(O)O)cc1C(=O)O | > 200 | > 200 | 
21 | COC(=O)CCC1CCc2c(OC)ccc(OC)c2C1=O (configuration not stated) |  |  | inactive
22 | O=C(CCN1CCCC1)CC(c1ccccc1)c1c(O)c2ccccc2oc1=O (configuration not stated) | > 91.2 | > 91.2 | 

Row | Structure (SMILES) | EC50 [µM] | IC50 [µM] | outcome
23 | CC(C)(C)c1ccc(-c2nc3ccc(Cl)cc3c(=O)o2)cc1 | > 200 | 9.33 | 
24 | Cn1cc(N)cc1C(=O)Nc1cc(C(=O)Nc2ccc(S(=O)(=O)O)c3cc(S(=O)(=O)O)ccc23)n(C)c1 | 31.6 | 324 | 
25 | O=C1C=C(c2c(O)ccc3ccccc23)c2ccccc2C1=O |  |  | inactive
26 | CC[C@@]1(C(=O)OC)C=CCN2C(=O)OC(C)(C)C21 (some centres not stated) |  |  | inactive
27 | COc1ccc(N2C(=O)C3c4[nH]c5ccccc5c4C4CCC(C(C)C)CC4C3C2=O)cc1 (configuration not stated) | > 100 | 93.3 | 
28 | COc1cc(C=O)c(-c2cc3c(cc2C2(C)OCCS2)OCO3)c(OC)c1OC (configuration not stated) | > 44.7 | 2.51 | 
29 | Cc1c(N=Nc2ccc(N(C)C)cc2)cc[n+]([O-])c1C | > 200 | > 200 | 
30 | C[N+]12CN3CN(C1)CP(=O)(C3)C2 | > 794 | 115 | 
31 | COC(=O)C(=C/c1ccc(OC)cc1)/C(C(=O)O)=C(/C)c1ccccc1 | > 708 |  | 
32 | CC(C)c1cccc2sc(NC(=O)C(=O)CC(=O)c3ccc(F)cc3)nc12 |  |  | inactive
33 | CC1=C(C(=O)Nc2cc(F)c(F)cc2F)C(c2cccc([N+](=O)[O-])c2)C(C(=O)Nc2ccccc2C(F)(F)F)=C(C)N1 (configuration not stated) | > 43.7 | > 43.7 | 
34 | CC(=Nc1ccccc1C(=O)[O-])c1c([O-])ccc2c(C)cc(=O)oc12.[Co+2].[OH3+].[OH3+].[OH3+] | > 3.24 | > 3.24 | 
35 | Clc1ccc2c(c1)Sc1ccc(Cl)cc1S2 | > 200 | > 200 | 
36 | CC(NNC(=O)c1ccncc1)c1cccc(C(F)(F)F)c1 (configuration not stated) | > 200 | 195 | 
37 | [N-]=[N+]=C(C(=O)C(=[N+]=[N-])C(=O)c1ccccc1)C(=O)c1ccccc1 | > 112 | > 112 | 
38 | OC(c1cc2ccccc2[nH]1)C1(c2cccnc2)SCCCS1 (configuration not stated) | > 200 | 57.5 | 
39 | Cn1c(=O)c(S(C)=O)c(O)c2ccccc21 (configuration not stated) | > 200 | > 200 | 
40 | Cn1cnc2c(sc3nc4ccccc4n32)c1=N | > 200 | > 200 | 
41 | CCC(=O)CCCC=C(c1cc(Cl)c(OC)c(CO)c1)c1cc(Cl)c(OC)c(CO)c1 | > 200 | 14.1 | 
42 | ClC(Cl)(Cl)C1CCOC1n1nc2ccccc2n1 (configuration not stated) | > 200 | > 200 | 
43 | Cc1ccc2nc(NC(=O)C(=O)C(C#N)c3nc4ccccc4s3)sc2c1 (configuration not stated) | > 66.1 | > 66.1 | 
44 | CCOC(=O)/C(C#N)=C/c1ccc(CO)o1 | > 200 | > 200 | 
